The test system of this experiment is episomal HPV16 DNA in W12-20850 cells. Put plainly: W-12 cellular assay (episomal HPV-16 DNA, hybrid capture). The note with it: Human papillomavirus 16, 96 h, four days incubation, episomal HPV-16 DNA quantified by hybrid capture, inhibition relative to untreated control cells. The experiment is classed as cell-based, HPV16 (human papillomavirus). On the procedure: Compounds of the current invention are believed useful in the treatment and/or prophylaxis of conditions and diseases associated with HPV infection. Activity mediated through HPV was determined using the following W-12 cellular assay.
The W12 cell line used contains HPV16 DNA and was derived from a low-grade cervical dysplasia tissue by Margaret Stanley and subsequently clonally selected by Paul Lambert (University of Wisconsin). One of these clones, W12-20850, contains 1000 copies of episomal HPV16 DNA and was used in the cell-based assay. W12-20850 cells were routinely cultured with a gamma-irradiated (6000 rads) feeder layer of 3T3 cells. Assays, however, were run in the absence of a 3T3 feeder layer. W12-20850 and 3T3 cells were routinely split when they were sub-confluent. W12-20850 were grown in W12 Medium which is constituted of 25% DMEM (Gibco BRL, Cat # 12430-047), 75% F12 Media (Gibco BRL, Cat # 11765-021) and 2.5% FBS. The additives include […] Adenine (Sigma, Cat # A-9795), 0.4 mg/ml Hydrocortisone (Calbiochem, Cat # 386698), […] Bovine Insulin (Sigma, Cat # I-1882), 8.4 ng/ml cholera toxin (Fluka, Cat # 26694) and 10 ng/ml EGF (Invitrogen, Cat # 13247-051). 3T3 cells were grown in DMEM containing 10% FBS. Cell lines were incubated at 37° C., in the presence of 5% CO2.
For the assay, W12-20850 cells were seeded into a 96 well plate-containing compound. Plates were incubated at 37° C. in the presence of 5% CO2, for four days. On the fourth day, cells were lysed and the amount of episomal HPV-16 DNA was quantified using a non-radioactive hybrid capture technique with HPV-16 specific capture and detection probes. The percent inhibition relative to untreated control cells was then determined.
The hybrid capture assay is run in a 96 well plate format. Hybridization plates (Nunc Maxisorb Cat # 450320) were coated with a mixture of capture probe and ReactiBind solution for at least 4 hours and then washed with 0.2)(SSC, 0.05% Tween20 (SSCT) prior to blocking with 150 μl/well of 0.2 N NaOH, 1% Igepal, 10 mg/ml hsDNA for 6-8 hours. The hybridization was carried out by mixing 271 μl of lysed cells with 45 μl of denatured detection probe in 6M guanidine isothiocyanate. To prevent evaporation, 50 μl of mineral oil was added to each well. The plate was then heated to 90° C. for 6.5 minutes and the hybridization continued at 42° C. overnight. Assay plates were washed 6 times with SSC/T. Anti-digoxigenin HRP-conjugated Ab (Boehringer Mannheim 1207733, 1:5000) was incubated in the wells for 30 min at room temperature and washed with PBS/0.05% Tween-20. SuperSignal LBA substrate (Pierce Cat # 37070) was added, and chemiluminescence was measured using Wallac 1420 Victor plate reader.

Structures are written as SMILES. pIC50: −log10 of the molar value. Some results are limits rather than exact numbers.

For the molecule `O=C(/C=C/c1ccccc1)NC1CCCc2c1[nH]c1ccc(Br)cc21` (stereo not shown) [Example 17, N-(6-Bromo-2,3,4,9-tetrahydro-1H-carbazol-1-yl)-3-phenylprop-2-enamide], the pIC50 (in general, the negative decadic logarithm of the IC50, by convention in mol/L) is 6.50.
Under `COc1cccc(C(=O)NC2CCCc3c2[nH]c2ccc(Br)cc32)c1` (stereo not shown) [Example 27, N-(6-Bromo-2,3,4,9-tetrahydro-1H-carbazol-1-yl)-3-methoxybenzamide] stands 7.55; under `COc1ccccc1C(=O)NC1CCCc2c1[nH]c1ccc(Br)cc21` (stereo not shown) [Example 30, N-(6-Bromo-2,3,4,9-tetrahydro-1H-carbazol-1-yl)-2-methoxybenzamide], less than 5.00.
`O=C(Cc1ccccc1)NC1CCCc2c1[nH]c1ccc(Br)cc21` (stereo not shown) [Example 15, N-(6-Bromo-2,3,4,9-tetrahydro-1H-carbazol-1-yl)-2-phenylacetamide] had a pIC50 of 6.24.
The molecule `Cc1ccc2[nH]c3c(c2c1)CCCC3NC(=O)Nc1ccccc1` (stereo not shown) [Example 43, N-(6-Methyl-2,3,4,9-tetrahydro-1H-carbazol-1-yl)-N′-phenylurea] gave a pIC50 of less than 5.00.
The molecule `O=C(N[C@@H]1CCCc2c1[nH]c1ccc(Cl)cc21)c1ccccn1` [Example 45B, N-[(1R)-6-chloro-2,3,4,9-tetrahydro-1H-carbazol-1-yl]pyridine-2-carboxamide] gave a pIC50 of 8.30.
In turn, `COc1ccc(NC(=O)NC2CCCc3c2[nH]c2ccc(Br)cc32)c(C)c1` (stereo not shown) [Example 11, N-(6-Bromo-2,3,4,9-tetrahydro-1H-carbazol-1-yl)-N′-(4-methoxy-2-methylphenyl)urea] had a pIC50 of less than 6.00.
`O=S(=O)(NC1CCCc2c1[nH]c1ccc(Br)cc21)c1ccccc1F` (stereo not shown) [Example 53, N-(6-bromo-2,3,4,9-tetrahydro-1H-carbazol-1-yl)-2-fluorobenzenesulfonamide] had a pIC50 of 7.29.
In the case of `COc1ccc(NC(=O)NC2CCCc3c2[nH]c2ccc(Br)cc32)cc1Cl` (stereo not shown) [Example 12, N-(6-Bromo-2,3,4,9-tetrahydro-1H-carbazol-1-yl)-N′-(3-chloro-4-methoxyphenyl)urea], the pIC50 was less than 5.00.
`O=C(NC1CCCc2c1[nH]c1ccc(Br)cc21)c1ccc(F)cc1` (stereo not shown) [Example 20, N-(6-Bromo-2,3,4,9-tetrahydro-1H-carbazol-1-yl)-4-fluorobenzamide]: the pIC50 is 7.70.
On to `O=C(NC1CCCc2c1[nH]c1ccc(Br)cc21)c1c(Cl)cccc1Cl` (stereo not shown) [Example 19, N-(6-Bromo-2,3,4,9-tetrahydro-1H-carbazol-1-yl)-2,6-dichlorobenzamide], for which the pIC50 is 5.24.
Regarding `O=C(Nc1ccccc1)NC1CCCc2c1[nH]c1ccc(Br)cc21` (stereo not shown) [Example 9, N-(6-Bromo-2,3,4,9-tetrahydro-1H-carbazol-1-yl)-N′-phenylurea], the pIC50 is 6.26.
`O=C(Nc1ccccc1)NC1CCCc2c1[nH]c1ccc(Cl)cc21` (stereo not shown) [Example 44, N-(6-Chloro-2,3,4,9-tetrahydro-1H-carbazol-1-yl)-N′-phenylurea] showed a pIC50 of 5.77.
Molecule `O=C(NC1CCCc2c1[nH]c1ccc(Br)cc21)c1ccccc1Cl` (stereo not shown) [Example 32, N-(6-Bromo-2,3,4,9-tetrahydro-1H-carbazol-1-yl)-2-chlorobenzamide] gave a pIC50 of 5.85.
With `O=C(N[C@H]1CCCc2c1[nH]c1ccc(Br)cc21)c1ccccc1` [Example 14C, N-[(1S)-6-bromo-2,3,4,9-tetrahydro-1H-carbazol-1-yl]benzamide], the pIC50 was 5.30. Compared with the last molecule, the pIC50 is 0.55 log units lower.
The molecule `COc1ccc(C(=O)NC2CCCc3c2[nH]c2ccc(Br)cc32)cc1` (stereo not shown) [Example 21, N-(6-Bromo-2,3,4,9-tetra hydro-1H-carbazol-1-yl)-4-methoxybenzamide] had a pIC50 of 7.66. This pIC50 lies 2.36 log units higher than the previous one.
As for `O=C(NC1CCCc2c1[nH]c1ccc(Br)cc21)OCc1ccccc1` (stereo not shown) [Example 18, Benzyl 6-bromo-2,3,4,9-tetrahydro-1H-carbazol-1-ylcarbamate], the pIC50 is 7.36.
The molecule `Cc1ccccc1C(=O)NC1CCCc2c1[nH]c1ccc(Br)cc21` (stereo not shown) [Example 33, N-(6-Bromo-2,3,4,9-tetrahydro-1H-carbazol-1-yl)-2-methylbenzamide] had a pIC50 of 6.30.
As for `O=S(=O)(NC1CCCc2c1[nH]c1ccc(Br)cc21)c1c(F)cccc1F` (stereo not shown) [Example 54, N-(6-bromo-2,3,4,9-tetrahydro-1H-carbazol-1-yl)-2,6-difluorobenzenesulfonamide], the pIC50 was 7.03.
On to `O=C(N[C@H]1CCCc2c1[nH]c1ccc(Cl)cc21)c1ccccn1` [Example 45C, N-[(1S)-6-chloro-2,3,4,9-tetrahydro-1H-carbazol-1-yl]pyridine-2-carboxamide], for which the pIC50 was 5.22.
Under `O=C(N[C@@H]1CCCc2c1[nH]c1ccc(Br)cc21)c1ccccc1` [Example 14B, N-[(1R)-6-bromo-2,3,4,9-tetrahydro-1H-carbazol-1-yl]benzamide] stands 8.00; under `O=C(NC1CCCc2c1[nH]c1ccc(Cl)cc21)c1ccccc1` (stereo not shown) [Example 36A, N-(6-Chloro-2,3,4,9-tetrahydro-1H-carbazol-1-yl)benzamide], 7.22.

Values taken from patent US7419997B2, “Tetrahydrocarbazole derivatives and their pharmaceutical use” (SmithKline Beecham Corporation, priority 2003, dated 2008).
